Measured values as given in PubChem BioAssay (NCI).
Several values for one entry are separate records, joined by “and”; a condition that tells them apart may be missing. Equal entries are not always repeated.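 1) Cells in 96-well plates. 2) Compound, 48 h, 5 concentrations. 3) Linear interpolation between surrounding doses. 4) Unreached endpoint = highest concentration. Abbreviation: GI50, concentration required for 50% inhibition of growth. TGI: total growth inhibition.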

How the values were obtained:
Experiment in all cases: growth of human tumour cells (NCI), 48 h
A498 renal = system: A498 renal
ACHN renal = system: ACHN renal
COLO 205 colon = system: COLO 205 colon
DMS 273 small cell lung = system: DMS 273 small cell lung
HCC-2998 colon = system: HCC-2998 colon
NCI-H460 lung = system: NCI-H460 lung
NCI-H522 lung = system: NCI-H522 lung
SK-MEL-28 melanoma = system: SK-MEL-28 melanoma
SNB-78 CNS = system: SNB-78 CNS
SR leukemia = system: SR leukemia

| Structure (SMILES) | GI50 (A498 renal) [µM] | TGI (A498 renal) | GI50 (ACHN renal) [µM] | TGI (ACHN renal) [µM] | TGI (COLO 205 colon) | GI50 (DMS 273 small cell lung) [µM] | TGI (DMS 273 small cell lung) [µM] | GI50 (HCC-2998 colon) [µM] | TGI (HCC-2998 colon) [µM] | GI50 (NCI-H460 lung) [µM] | TGI (NCI-H460 lung) | TGI (NCI-H522 lung) [µM] | GI50 (SK-MEL-28 melanoma) [µM] | TGI (SK-MEL-28 melanoma) [µM] | GI50 (SNB-78 CNS) [µM] | TGI (SNB-78 CNS) [µM] | GI50 (SR leukemia) [µM] | TGI (SR leukemia) [µM] | GI50 (COLO 205 colon) [µM] |
| --- | --- | --- | --- | --- | --- | --- | --- | --- | --- | --- | --- | --- | --- | --- | --- | --- | --- | --- | --- |
| O=C1C=C[C@@]23C[C@@H](Nc4c(O)c5c6c(c42)=NCCC=6C=N5)SC3=C1 | 9.04 | 25.3 µM | 3.35 | 9.16 | 2.92 µM | 2.42 | 8.37 | 4.39 | 13.6 | 7.2 | 19.8 µM | 3.13 | 7.48 | 20.1 | 3.24 | 12.3 | 2.26 | 6.14 | – |
| C=C1C(=O)OC2C1CC[C@H](C)C13OC(=O)CC1[C@@]23C (stereo partly specified) | – | > 100 µM | – | > 100 | > 100 µM | – | > 100 | – | > 100 | – | > 100 µM | > 100 | – | > 100 | – | > 100 | – | > 100 | – |
| O=c1c2cccc3cccc(c4oc5c6cccc7cccc(c(=O)c5c14)c76)c32 | – | > 100 µM | – | 16.3 | 15.6 µM | – | 17.9 | – | > 31.6 | – | 18.1 µM | 10.1 | – | 17.7 | – | 21.2 | – | 29.9 | – |
| Nc1ccn(CCO)c(=O)n1 | – | > 100 µM | – | > 100 | > 100 µM | – | > 100 | – | > 100 | – | > 100 µM | > 100 | – | > 100 | – | > 100 | – | > 100 | – |
| O=C1OC(CC(=O)c2ccc(Cl)cc2Cl)C(Cl)=C1Cl (stereo unspecified) | – | > 100 µM | – | > 56.9 | 52.6 µM | – | > 100 | – | 29.4 | – | > 100 µM | 34.7 | – | 37.2 | – | > 71.3 | – | 70.4 | – |
| CCCCCCCCCCC(O)[C@H]1CCC(C2CC[C@H]([C@H](O)CCCCCCCCCCC(O)CC3=CC(C)OC3=O)O2)O1 (stereo partly specified) | 3.15 | 9.03 µM and 53.2 µM | – | 2.9 | 2.84 µM and 5.12 µM | – | 4.4 | – | 15 | 2.16 | 4.12 µM and 29.9 µM | 5.06 | – | 7.73 | – | 8.16 | – | 9.23 | 2.17 |
